Key:
mice = test: rotating rod test (ataxic activity); type: in vivo; conditions: quotient of ataxic to anxiolytic activity, orally, should be as large as possible
Description: Furthermore, there is given in this table the ataxic activity. The ratio of ataxic activity to the anxiolytic activity is of the greatest significance in using a material as an anxiolytic agent. This quotient should be as large as possible since an ataxic activity is undesirable. Ataxic activity means that the coordination of the muscular movements is disturbed--ataxicdisturbance of the muscular coordination. This means at the dosage at which a marked anxiolytic acitvity is present there should not be found a noteworthy ataxice. The toxicity, in case the data exists above the ataxic activity, is no longer important since the amount which is toxic is always considerably higher than the amount at which 50% (ED50) of the animals have an ataxic effect. The ataxic effect was measured on mice on the pattern of the rotating rod.
In the rotating rod test the animals (mice) were firest placed on a rotating rod 15 minutes after the application of the test material and then were placed on the rotating rod every 15 minutes and the animals which fell down within 2 minutes measured positive. From the number of animals which fell down expressed in percent there were drawn time-effect curves and the areas defined by it entered as percent effect in a probability network, the dosage-effect-line prepared and the ED50 read off. The ED50 mg/kg body weight of the mouse again specifies the dosage at which 50% of all the animals show a typical ataxic effect.

[1] = First Int. Pharmacological Meeting, Vol. 7; cited from earlier work
[2] = J. Amer. Med. Ass. Vol. 170 (1959); cited from earlier work
[3] = in words; cited from earlier work

| Structure (SMILES) | ED50 Rotating Rod / ED50 Card. Shock (mice) | other results |
| --- | --- | --- |
| CN1C(=S)CN=C(c2ccccc2Cl)c2nc(Cl)ccc21 [Example 24, 1-Methyl-5-(o-chlorophenyl)-6-aza-7-chloro-1,2-dihydro-3H-1,4-benzodiazepinthione-(2)] | 12.5 | – |
| O=C(O)CCC(=O)OC1N=C(c2ccccc2Cl)c2nc(Cl)ccc2NC1=O (stereo not drawn) [Example 12] | 13.5 | – |
| CC(=O)OC1N=C(c2ccccc2Cl)c2nc(Cl)ccc2N(C(C)=O)C1=O (stereo not drawn) [Example 15, 1-Acetyl-3-acetoxy-5-(o-chlorophenyl)-6-aza-7-chloro-1,2-dihydro-3H-1,4-benzodiazepinone-(2)] | 6.7 | – |
| CN1C(=O)CN=C(c2ccccc2)c2nc(Cl)ccc21 [Example 17, 1-Methyl-5-phenyl-6-aza-7-chloro-1,2-dihydro-3H-1,4-benzodiazepinone-(2)] | 6.2 | – |
| C=CCN1C(=O)CN=C(c2ccccc2)c2nc(Cl)ccc21 [Example 18, 1-Allyl-5-phenyl-6-aza-7-chloro-1,2-dihydro-3H-1,4-benzodiazepinone-(2)] | 8.2 | – |
| CC1N=C(c2ccccc2)c2nc(Cl)ccc2NC1=O (racemic) [Example 4, 3-Methyl-5-phenyl-6-aza-7-chloro-1,2-dihydro-3H-1,4-benzodiazepinone-(2)] | 4.3 | – |
| O=C1Nc2ccc(Cl)nc2C(c2ccccc2Cl)=NC1O (stereo not drawn) [Example 13, 3-Hydroxy-5-o-chlorophenyl-6-aza-7-chloro-1,2-dihydro-3H-1,4-benzodiazepinone-(2)] | 15.0 | – |
| O=C1CN=C(c2ccccc2Cl)c2nc(Cl)ccc2N1 [Example 6, 5-(o-Chlorophenyl)-6-aza-7-chloro-1,2-dihydro-3H-1,4-benzodiazepinone-(2)] | 16.5 | – |
| CN1C(=O)CN=C(c2ccccc2Cl)c2nc(Cl)ccc21 [Example 21, 1-Methyl-5-(o-chlorophenyl)-6-aza-7-chloro-1,2-dihydro-3H-1,4-benzodiazepinone-(2)] | 10.2 | – |
| CC(NN)c1ccccc1 (stereo not drawn) [alpha phenyl-ethyl hydrazine] | – | stimulating activity / sedative action [1]: strong stimulating activity |
| O=C1CN=C(c2ccccc2F)c2nc(Cl)ccc2N1 [Example 10, 5-(-Fluorophenyl)-6-aza-7-chloro-1,2-dihydro-3H-1,4-benzodiazepinone-(2)] | 10.4 | – |
| O=C1CN=C(c2ccccc2)c2nc(Cl)ccc2N1CC1CC1 [Example 19] | 7.7 | – |
| CN(C)CCOC(C)(c1ccccc1)c1ccc(Cl)cc1 (stereo not drawn) [chlorphenoxamine] | – | anticholinergic activity [2]: strengthening of its anticholinergic activity; antihistamine activity [3]: antihistamine activity reduced |
| CN1C(=O)CN=C(c2ccccc2F)c2nc(Cl)ccc21 [Example 9, 1-Methyl-5-(o-fluorophenyl)-6-aza-7-chloro-1,2-dihydro-3H-1,4-benzodiazepinone-(2)] | 6.1 | – |

— patent publication USRE31071E, “6-Aza-3H-1,4-benzodiazepines” (Deutsche Gold- und Silber-Scheideanstalt vormals Roessler, priority 1971, dated 1982)
